Source: patent US20240199562A1, “UREA DERIVATIVES FOR TREATING UVEAL MELANOMA” (CENTRE NATIONAL DE LA RECHERCHE SCIENTIFIQUE, priority 2021, published 2024)
Like-named read-outs stand apart in the source and are kept apart here.

How the values were obtained:
[1] = test system: MM66 cells; assay: Cell viability (XTT) on uveal melanoma cells MM66; assay type: cell-based
Protocol: (§1) FIG. 1: In vitro efficacy of MCK140 and MCK151 on uveal melanoma cells. Cells were treated for 48 hours with increasing doses of MCK140 or MCK151 and the cell viability was then evaluated by XTT.
(§2) FIG. 2A: In vitro efficacy of MCK151, Ladarixin, and AZD-5069 in uveal melanoma cells. MP41 and MM66 cells were treated for 48 hours with increasing doses of MCK151 or Ladarixin or AZD-5069 and the cell metabolism was then evaluated by XTT.
(§3) Cell culture: Uveal melanoma cells were derived from the primary tumor (eye tumor, MP38 and MP46) and one is from liver metastasis (MM66) were a kind gift from Dr. Roman Roman (Curie Institute). UM cells were cultured in RPMI medium supplemented with 20% FBS.
(§4) Cell viability (XTT): Cells (5×10^3 cells/100 μl) were incubated in a 96-well plate with different effectors for the times indicated in the figure legends. 50 μl of sodium 3′-[1-phenylaminocarbonyl)-3,4-tetrazolium]-bis(4-methoxy-6-nitro) benzene sulfonic acid hydrate (XTT) reagent was added to each well. The assay is based on the cleavage of the yellow tetrazolium salt XTT to form an orange formazan dye by metabolically active cells. Absorbance of the formazan product, reflecting cell viability, was measured at 490 nm. Each assay was performed in quadruplicate.

[2] = test system: MP41 cells; assay: Cell viability (XTT) on uveal melanoma cells MP41; assay type: cell-based; settings: for IC50: MP41 cells (primary tumor)
Protocol: as §1, §2, §3, §4

[3] = test system: MP41 cells; assay: Tumor xenograft, gavage; assay type: in vivo, mice; settings: orally
Protocol: FIG. 5: In vivo efficacy of MCK151 on mice treated by gavage. Five million MP41 cells were injected subcutaneously into the flank of 5-week-old NOD-SCID female mice. When the tumor reached 100 mm^3, mice were treated every day for 27 days, by gavage with placebo (10% ethanol vehicle) or MCK151 (33 or 100 mg/kg in 10% ethanol vehicle). • A: The tumor volume was evaluated using a calliper. The results are presented as the means±sd. ** p<0.01, *** p<0.001 • B: Tumor weight at the end of the experiment. ** p<0.01, *** p<0.001 ns: non significant • C: Animal weight at the end of the experiment. ns: non significant
(§5) Tumor xenograft experiments: These studies were carried out in strict accordance with the recommendations in the Guide for the Care and Use of Laboratory Animals. Our experiments were approved by the “Comité National Institutionnel d'Ethique pour l'Animal de Laboratoire”. Five million MP41 cells were injected subcutaneously into the flank of 5-week-old Nod-SDIC female mice (Janvier). When the tumor reached 100 mm3, mice were treated. The tumor volume was determined with a caliper (v=L*l2*0.5).
An oral formulation (10% ethanol in ultrapure water) was developed and tested in the same in vivo model (FIG. 5). […] However, a 100 mg/kg dose reduced tumor growth (50% reduction, FIG. 5A).

[4] = test system: MP41 cells; assay: Tumor xenograft, intraperitoneal injection; assay type: in vivo, mice
Protocol: FIG. 4: In vivo efficacy of MCK151 on mice treated by intraperitoneal injection. Five million MP41 cells were injected subcutaneously into the flank of 5-week-old NOD-SCID female mice. When the tumor reached 100 mm^3, mice were treated every day for 20 days, by intraperitoneal injection with placebo (dextrose water vehicle) or MCK151 (200 or 400 μg in dextrose water vehicle) • A: The tumor volume was evaluated using a calliper. The results are presented as the means±sd. ** p<0.01 • B: Tumor weight at the end of the experiment. ** p<0.01, *** p<0.001 • C: Animal weight at the end of the experiment. ns: non significant
as §5

[5] = test system: MP41 cells; assay: ROS assay (CellROX Deep Red, cytometry); assay type: cell-based; settings: MCK151 1, 2.5, 5 μM, Ladarixin 10 μM, FIG. 2B
Protocol: FIG. 2B: Inhibition of ROS production by MCK151 and Ladarixin in uveal melanoma cells. MP41 cells were treated for 48 hours with increasing doses of MCK151 (1 μM, 2.5 μM, and 5 μM) or Ladarixin (10 μM) and ROS quantity was evaluated by cytometry.
ROS assay: Deep Red Reagent was used to assess the level of intracellular ROS. The CellROX/Deep Red reagent (which is initially non-fluorescent) freely enters the cells, where it is cleaved by endogenous esterases. After oxidization by ROS, the reagent becomes highly fluorescent with an absorption/emission maximal of 644/665 nm. Cells were treated 24h and incubated at 37° C. with CellROX Deep Red reagent (0.01 umol/L) for 2 h. The cells were then washed with PBS and analyzed by cytometry.

[6] = test system: MMP9 mRNA; assay: MMP9 mRNA levels by RT-qPCR; assay type: cell-based; settings: MP41 and MM66 cells, 24 hours, 2.5 μM, FIG. 3B
Protocol: FIG. 3B: MMP9 mRNA levels (AU) in uveal melanoma cells. MP41 and MM66 cells were treated for 24 hours with MCK151 (2.5 μM) and MMP9 mRNA levels were evaluated by qPCR. *** p<0.001.
Analyses by RT-qPCR: RNA from cells were purified with the RNeasy Mini Kit (Quiagen). The “QuantiTect Reverse Transcription Kit” (Qiagen) was used for cDNA obtention. The PCR program was executed on “Professional Basic Thermocycler” (Biometra). SYBR master mix plus (Eurogentec) was used for qPCR. The mRNA levels were normalized to 36B4 mRNA.

[7] = test system: MP38 cells; assay: Cell viability (XTT) on uveal melanoma cells MP38; assay type: cell-based
Protocol: as §1, §3, §4

[8] = test system: MM66 cells; assay: Migration assay (Boyden chamber); assay type: cell-based
Protocol: FIG. 3A: Evaluation of the migration ability of uveal cells treated with MCK151. MP41 and MM66 cells migration was analysed using Boyden chamber assays in the presence/absence of MCK151 (0.1 to 2.5 μM). Representative images were shown. ** p<0.01, *** p<0.001
Migration assays: 50 000 cells were cultured in RPMI 0% FCS and seeded in Boyden chambers. After 24 h, Boyden chambers were washed with PBS. Migrative cells were fixed with paraformaldehyde 3% and colored with crystal violet.

[9] = test system: SLUG; assay: SLUG protein amount by immunoblotting; assay type: cell-based; settings: MP41 and MM66 cells, 2.5 μM, 0-24 h, FIG. 3C
Protocol: FIG. 3C: Slug proteins amount in uveal melanoma cells treated by MCK151. MP41 and MM66 cells were treated with MCK151 (2.5 μM) for different time (0, 2, 4, 6, 8, and 24 h). SLUG protein amounts were evaluated by immunoblotting. HSP90 is used as a loading control.
Immunoblotting: Cells were lysed in SDS 7.5%; glycerol 30%; Tris 0.3 M pH 6.8 lysis buffer. 30 μg of proteins were separated on 10% SDS—polyacrylamide gels and transferred on PVDF membranes. The following primary antibodies were used: SLUG (Cell signaling, ref:9585) and HSP90 (Cell signaling, ref:4877).

[10] = MM66 cells (liver metastases), 48 h, Table 3, read-out: IC50 (μM) at 48 h MM66
[11] = 48 h, Table 3, read-out: IC50 (μM) at 48 h MP41

`O=C(Nc1nc2ccc([N+](=O)[O-])cc2s1)Nc1ccccc1Cl` [MCK139, 1-(2-chlorophenyl)-3-(6-nitrobenzo[d]thiazol-2-yl)urea] was tested, and the IC50 [1, 10] was 15 µM and the IC50 [2, 11] was 20 µM.
`O=C(Nc1ccccc1)Nc1nc2ccccc2[nH]1` [MCK113, 1-(1H-benzo[d]imidazol-2-yl)-3-phenylurea] was tested, and the IC50 [1, 10] was 40 µM and the IC50 [2, 11] was 32 µM.
`O=C(Nc1cccc(Cl)c1)Nc1nc2ccc(Br)cc2s1` [MCK159, 1-(6-bromobenzo[d]thiazol-2-yl)-3-(3-chlorophenyl)urea] was tested, and the IC50 [1, 10] was 10 µM and the IC50 [2, 11] was 20 µM.
In the case of `O=C(Nc1cc(Cl)cc(Cl)c1)Nc1nc2ccc([N+](=O)[O-])cc2s1` [MCK151, 1-(3,5-dichlorophenyl)-3-(6-nitrobenzo[d]thiazol-2-yl)urea], the tumor growth ([3]; 33 mg/kg per day, FIG. 5) is reported as “had a trend to decrease tumor growth”, the “reduction of tumor growth” value ([3]; 100 mg/kg dose, FIG. 5A) is reported as 50% and the “reduction of tumor weight” value ([3]; 100 mg/kg dose, FIG. 5B) is reported as 50%. For the same compound, the mice weight ([3]; 33 and 100 mg/kg/day, FIG. 5C) was “did not modify mice weight”, the IC50 [1, 10] was 1.5 µM and the IC50 ([1]; MM66 cells (liver metastasis), 48 hours, XTT, Table 2, read-out: IC50 (μM) UM MM66) was 1.5 µM. The viability of cells ([1]; MM66 cells from liver metastases, in words) was “decreased the viability”, the “metabolism of UM cells (XTT)” value ([1]; MM66 cells, 48 hours, increasing doses, FIG. 2A) was “strongly inhibits the metabolism of UM cells” and the “inhibition of tumor growth” value ([4]; NOD-SCID mice, 400 μg dose, FIG. 4A) was 73%. For the same compound, the “growth of experimental tumors” value ([4]; NOD-SCID mice, 200 or 400 μg every day for 20 days, FIG. 4A) was “inhibited”, the “tumors at the end of the experiment” value ([4]; NOD-SCID mice, FIG. 4B (tumor weight)) was “smaller” and the weight of mice ([4]; whatever the concentration, FIG. 4C) was “did not modify the weight of mice”. The “ROS production by UM cells” value [5] was “inhibits ROS production”, the “MMP9 mRNA levels” value [6] was “decreases MMP9 mRNA levels” and the IC50 ([7]; MP38 cells (primary tumor), 48 hours, XTT) was 1 µM. The viability of cells ([7]; MP38 cells from the primary tumor, in words) was “decreased the viability”, the “concentration of optimal effect on migration” value ([8]; Boyden chamber) was 0.5 µM and the migration ability ([8]; MCK151 0.1 to 2.5 μM, FIG. 3A) was “inhibits this migration ability”. The IC50 [2, 11] was 1.25 µM, the IC50 ([2]; 48 hours, XTT, Table 2, read-out: IC50 (μM) UM MP41) was 1.25 µM and the viability of cells ([2]; MP41 cells from the primary tumor, in words) was “decreased the viability”. For the same compound, the “metabolism of UM cells (XTT)” value ([2]; MP41 cells, 48 hours, increasing doses, FIG. 2A) was “strongly inhibits the metabolism of UM cells” and the “expression of SLUG” value [9] was “decreases”.
`CCOc1ccc2nc(NC(=O)Nc3ccccc3C)sc2c1` [MCK133, 1-(6-ethoxybenzo[d]thiazol-2-yl)-3-(o-tolyl)urea] showed an IC50 [1, 10] of 20 µM and an IC50 [2, 11] of 15 µM.
For `CC(=O)Nc1ccc2nc(NC(=O)Nc3cccc(Cl)c3)sc2c1` [MCK149, N-(2-(3-(3-chlorophenyl)ureido)benzo[d]thiazol-6-yl)acetamide], the IC50 [1, 10] was 25 µM and the IC50 [2, 11] was 40 µM.
`Nc1ccc2nc(NC(=O)Nc3cccc(Cl)c3)sc2c1` [MCK148, 1-(6-aminobenzo[d]thiazol-2-yl)-3-(3-chlorophenyl)urea] showed an IC50 [1, 10] of 50 µM and an IC50 [2, 11] of 50 µM.
`CCOc1ccc2nc(NC(=O)Nc3ccc(OC)cc3)sc2c1` [MCK135, 1-(6-ethoxybenzo[d]thiazol-2-yl)-3-(4-methoxyphenyl)urea] showed an IC50 [1, 10] of 50 µM and an IC50 [2, 11] of 50 µM.
